According to patent publication US10921324B2, “Compositions and methods related to the methylation of histone H1.0 protein” (Aelan Cell Technologies, Inc., priority 2016, dated 2021):
Ends that are not written are not given here.

Tested on: G9A methyltransferase
Assay: Radiolabel in vitro methylation assay of H1.0 peptide (autoradiography)
Format: biochemical
Details: 10U G9A, S-[Methyl-3H] SAM, 37° C. 1 hour
Protocol: In order to visualize methylation of H1.0 peptide by G9A methyltransferase in vitro, a methylation assay was performed incorporating a radiolabelled methyl donor, which allows for visualization of methylated peptide on a gel after autoradiography exposure. The following methylation reaction was set up in a 1.5 ml tube: 1×HMT reaction buffer (50 mM Tris-HCl, 5 mM MgCl2, 4 mM dithiothreitol, pH 9.0), 10U G9A Methyltransferase (NEB, M0235S, Lot #0031201), 3.2 mM Adenosyl-L-Methionine, S-[Methyl-3H] (Perkin Elmer, NET155H, Lot #1664720), 10 μg H1.0 peptide (ThermoFisher Scientific, Biotin-[…] (SEQ ID NO:69)), final volume 10 μl. A control reaction as above but without H1.0 peptide was also created. Reactions were incubated in a thermocycler at 37° C. for 1 hour. Reactions were stopped by incubating on ice for 5 minutes, and subsequently resolved on a 16.5% Tricine gel (BioRad, 4563063). Gels were soaked in 30% methanol, 5% glycerol for 30 minutes before vacuum drying at RT for 24 hours. Autoradiography analysis of dried gels with a phosphoimager (Molecular Dynamics) was then performed to assess effective methylation of H1.0 peptide with methyl-3H groups by the G9A methyltransferase. (Example 1, FIG. 8A)
The methylation reaction was subsequently resolved on a gel and visualized via autoradiography. […] A control reaction lacking H1.0 peptide yielded no tritium-labeled products.

Sequence of G9A methyltransferase (Q9Z148 969-1263 limits assumed): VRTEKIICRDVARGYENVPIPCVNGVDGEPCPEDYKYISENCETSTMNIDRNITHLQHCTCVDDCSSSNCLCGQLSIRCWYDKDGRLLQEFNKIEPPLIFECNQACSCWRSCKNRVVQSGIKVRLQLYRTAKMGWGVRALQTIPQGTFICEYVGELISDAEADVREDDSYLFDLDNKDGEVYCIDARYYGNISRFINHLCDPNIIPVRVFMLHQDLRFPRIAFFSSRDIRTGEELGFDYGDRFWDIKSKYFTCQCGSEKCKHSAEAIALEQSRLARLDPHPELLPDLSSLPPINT

methylation of H1.0 peptide by G9A (tritium-labeled methyl groups, band at 4 kDa): capable of methylating an H1.0 peptide
Sequence: AKPVKASKPKKAKPVKPK (not fully specified (N-terminus); listed as Homo sapiens) [unmethylated H1.0 peptide, unmodified H1.0 peptide substrate for in vitro methylation]
